Legend:
[1] = test system: tumor growth; settings: co-injection with an appropriate peptide as a vaccine, mouse models (Schmidt, Buschle et al. 1997); cited from earlier work
[2] = test system: human CD1a positive dendritic cells; test: TRANSloading of human dendritic cells with MHC class I and MHC class II peptides by LL-37; assay type: cell-based
Procedure: To compare the efficiency of peptide delivery of these diverse “carrier-peptides”, the amount of peptide uptake into APCs was monitored by incubating P388D1 cells (murine monocyte-macrophage antigen presenting cell line; purchased from ATCC (TIB-63), or human CD1a positive (derived from human HLA-A2 positive donors, CD14+ positive PBMCS) dendritic cells, for 1 h at 37° C. with a constant amount of fuorescein-tagged peptide alone or in combination with diverse “carrier-peptides” at concentrations indicated. Before analysing the cells by flow cytometry, the cells were washed extensively to remove free peptide. The relative amount of fluorescein-tagged peptide taken up by the cells was measured by flow-cytometry.
FIG. 8a • (1) no peptide (cells alone) • (2) 2.5 μg FL-[…] (SEQ ID NO:23) (MHC class I; peptide alone) • (3) 2.5 μg FL-[…] (SEQ ID NO:23) (MHC class I)+30 μg LL-37 (SEQ ID:2)
FIG. 8b • (1) no peptide (cells alone) • (2) 2.5 μg FL-[…] (SEQ ID NO:24) (MHC class II; peptide alone) • (3) 2.5 μg FL-[…] (SEQ ID NO:24) (MHC class II)+30 μg LL-37 (SEQ ID:2)

[3] = test system: immature and mature dendritic cells; settings: Yang, Chen et al. 2001; cited from earlier work
[4] = test system: peripheral blood monocytes; settings: utilizing formyl peptide receptor-like 1 (FPRL1) (De, Chen et al. 2000); cited from earlier work
[5] = test system: neutrophils; settings: Agerberth, Charo et al. 2000; De, Chen et al. 2000; cited from earlier work
[6] = test system: mast cells; settings: mast cells (Niyonsaba, Someya et al. 2001); cited from earlier work
[7] = test system: CD4+ T cells; settings: Agerberth, Charo et al. 2000; De, Chen et al. 2000; cited from earlier work
[8] = test system: IFN-γ-producing specific cells (TRP-2 181-188 VYDFFVWL); test: IFN-γ ELISpot after vaccination of mice with TRP-2 peptide plus carrier-peptide; assay type: in vivo, mice (C57BL/6); settings: s.c. days 0, 7, 14, 100 μg VYDFFVWL + carrier-peptide, two weeks after 3rd vaccination, versus peptide alone or peptide plus poly-L-arginine; for IFN-γ-producing specific cells, splenocytes: FIG. 10
Procedure: The groups of mice were injected as follows (amounts indicated/per mouse). • (1) 100 μg […] (SEQ ID NO:25) • (2) 100 μg […] (SEQ ID NO:25)+100 μg poly-L-arginine • (3) 100μ […] (SEQ ID NO:25)+[…] cathelicidin derived antimicrobial peptide (SEQ ID NO:1) • (4) 100 μg […] (SEQ ID NO:25)+500 μg bovine indolicidin (SEQ ID NO:3)
Two weeks after the 3rd vaccination, draining (inguinal) lymph nodes and spleens were removed and […].

[9] = test system: P388D1 cells (murine monocyte-macrophage antigen presenting cell line); test: TRANSloading assay: uptake of fluorescein-tagged antigenic peptide into P388D1 cells with carrier-peptides, flow cytometry; assay type: cell-based; settings: for uptake of antigens in dendritic cells: summary statement, cells of mice

## poly-L-arginine
[1]
  protection from tumor growth: protects animals from tumor growth

## LL-37: human cathelicidin derived antimicrobial peptide, C-terminal domain of hCAP-18 (LLGDFFRKSKEKIGKEFKRIVQRIKDFLRNLVPRTES)
[2]; FIG. 8a, 2.5 μg FL-[…] + 30 μg LL-37
  pulsing of human dendritic cells with MHC class I antigenic peptide: to a significant extent
[2]; FIG. 8b, 2.5 μg FL-[…] + 30 μg LL-37
  pulsing of human dendritic cells with MHC class II antigenic peptide: to a significant extent
[2]; summary statement, cells of men
  uptake of antigens in dendritic cells: enhance the uptake of antigens
[3]
  chemotactic activity for immature and mature dendritic cells: no chemotactic activity
[4]
  chemotaxis of peripheral blood monocytes: induces chemotaxis
[5]
  chemotactic activity for neutrophils: exert chemotactic activity
[6]
  histamine release: shown to induce
  intracellular calcium mobilization: shown to induce
[7]
  chemotactic activity for CD4+ T cells: exert chemotactic activity

## murine cathelicidin derived antimicrobial peptide: murine cathelin-related antimicrobial peptide, SEQ ID NO:1 (SRLAGLLRKGGEKIGEKLKKIGQKIKNFFQKL)
[8]
  IFN-γ-producing specific cells, splenocytes: more IFN-γ-producing specific cells
[9]
  uptake of antigens in dendritic cells: enhance the uptake of antigens

## bovine dodecapeptide: bovine cathelicidin derived antimicrobial dodecapeptide, SEQ ID NO:4, linear form in Example 3 (RLCRIVVIRVCR)
[9]; Example 3, FIG. 6, 2 μg FL-LFEAIEGFI + 18.75, 37.5, 75, 150 μg linear bovine dodecapeptide
  pulsing effect with increasing amounts of carrier-peptide: increased significantly
[9]
  uptake of antigens in dendritic cells: enhance the uptake of antigens

## poly-L-lysine
[1]
  protection from tumor growth: protects animals from tumor growth

## NH2-ILPWKWPWWPWRR-CONH2 [bovine indolicidin]
[8]; FIG. 9
  IFN-γ-producing specific cells, lymph node cells: more IFN-γ-producing specific cells
[8]
  IFN-γ-producing specific cells, splenocytes: more IFN-γ-producing specific cells
[9]
  uptake of antigens in dendritic cells: enhance the uptake of antigens

## PR-39: porcine proline-arginine-rich 39-amino-acid cathelicidin peptide (RRRPRPPYLPRPRPPPFFPPRLPPRIPPGFPPRFPPRFPGKR) [reference compound]
[5]
  chemotactic activity for neutrophils: exert chemotactic activity

Source: patent US7658928B2, “Method of vaccination comprising administering an antigen and a cathelicidin derived antimicrobial peptide” (Intercell AG, priority 2000, dated 2010)
